From publication PMC9046089, “CCNE1 amplification is synthetic lethal with PKMYT1 kinase inhibition” (Nature, 2022)
“And” between values parts separate entries of the source, which are not always exact repeats. Identical values can stand only once. Like-named read-outs stand apart in the source and are kept apart here.

What was measured:
Type in all cases: cell-based
[1] = test system: CDK1; assay: Immune complex histone H1 kinase assay, IP-CDK1, FT282 CCNE1-high cells; details: 24 h; for 32P-labelled histone H1 band intensity, IP-CDK1 kinase assay: 0 nM = 1
Procedure: (§1) Protein concentration was determined by Bradford assay (Thermo Fisher Scientific cat. no. 1856209). For immunoprecipitation of kinases, 200 μg of extract was diluted in 750 μl EBN buffer and 10 μg of CDK1 or CDK2 primary antibody agarose bead conjugates were added to the extract and rotated at 4 °C overnight. Immunoprecipitates were pelleted by centrifugation at 2,500g at 4 °C for 5 min and washed 2× in 750 μl EBN followed by 1 ml EB (80 mM β-glycerol phosphate, 15 mM MgCl2, 20 mM EGTA, 1 mg ml^−1 ovalbumin). After the final wash, the immunoprecipitates were resuspended in 500 μl EB and split into two samples. One sample was used for immunoblot analysis and the other used for kinase assays. Following removal of the final wash, immunoprecipitates were resuspended in 11 μl histone H1 kinase assay buffer (80 mM β-glycerol phosphate, 15 mM MgCl2, 20 mM EGTA, 1 mg ml^−1 ovalbumin, 10 mM DTT, 0.15 μg μl^−1 histone H1 (Sigma-Aldrich, cat. no. H1917), 22 μM ATP, 0.05 μCi μl^−1 γ^32P-ATP (Perkin Elmer NEG502A250UC), pH 7.3) and incubated at room temperature for 30 min. Reactions were quenched by addition of 5 μl 6× sample buffer (60% glycerol, 6% SDS, 0.03% bromophenol blue, 1,500 mM Tris-Cl pH 6.8, 60 mM DTT) and resolved by SDS–PAGE. Gels were exposed to a phosphor imaging screen for 1–2 d and imaged using a Typhoon FLA 9500 (GE Healthcare Life Sciences). 32P-H1 band intensity was quantified using ImageJ v2.0.0.

[2] = test system: HCC1569 cells; assay: Cell proliferation assay (Incucyte growth inhibition, synergy); details: three replicates
From the text: (§2) Per cent confluence relative to a non-treated control was used to evaluate growth inhibition induced by test compounds. […] (https://synergyfinder.fimm.fi).

[3] = test system: CDK2; assay: Immune complex histone H1 kinase assay, IP-CDK2, FT282 CCNE1-high cells; details: 24 h
Procedure: as §1, with “Gels were exposed to a phosphor imaging screen for 1–2 d and imaged using a Typhoon FLA 9500 (GE Healthcare Life Sciences).” left out

[4] = test system: DOTC24510 cells; assay: Cell proliferation assay (Incucyte growth inhibition); details: three replicates
From the text: as §2

[5] = test system: RPE1-hTERT TP53-/- Cas9 parental cells; assay: as above
From the text: as §2

[6] = test system: SNU8 cells; assay: as above; details: three replicates
From the text: as §2

[7] = test system: OVCAR3 cells; assay: as above; details: three replicates
From the text: as §2

[8] = test system: TOV112D cells; assay: as above; details: three replicates
From the text: as §2

[9] = test system: SUM149PT cells; assay: as above; details: three replicates
From the text: as §2

[10] = test system: COV362 cells; assay: as above; details: COV362, growth inhibition, three replicates
From the text: as §2

[11] = test system: RPE1-hTERT TP53-/- Cas9 CCNE1-high cells; assay: as above
From the text: as §2

[12] = test system: NUGC3 cells; assay: as above; details: three replicates
From the text: as §2

[13] = test system: KYSE30 cells; assay: as above; details: three replicates
From the text: as §2

Structure (SMILES): C=CCn1c(=O)c2cnc(Nc3ccc(N4CCN(C)CC4)cc3)nc2n1-c1cccc(C(C)(C)O)n1 [AZD-1775]
- 32P-labelled histone H1 band intensity, IP-CDK1 kinase assay ([1]; AZD-1775 250 nM): 1.298 and 1.203 and 0.7824
- 32P-labelled histone H1 band intensity, IP-CDK1 kinase assay ([1]; AZD-1775 500 nM): 1.804 and 1.271 and 1.266
- 32P-labelled histone H1 band intensity, IP-CDK1 kinase assay ([1]; AZD-1775 1000 nM): 2.54 and 1.785 and 1.69
- CDK1 kinase activity ([1]; FT282 CCNE1-high cells): activation of both kinases
- EC50 ([2]; Homo sapiens, HCC1569, growth inhibition): 54 nM
- EC50 ([2]; growth inhibition): 51 nM and 56 nM
- CDK2 kinase activity [3]: activation of both kinases
- EC50 ([4]; Homo sapiens, DoTc2-4510, growth inhibition): 38 nM
- EC50 ([4]; growth inhibition): 42 nM and 55 nM
- EC50 ([5]; Homo sapiens, RPE-1, read-out: RP-6306 EC50 (mM) RPE1 WT, growth inhibition, three replicates): 0.000172 mM
- EC50 ([5]; read-out: RP-6306 EC50 (mM) RPE1 WT, growth inhibition, three replicates): 0.000159 mM and 0.000154 mM
- EC50 [6]: 98 nM and 114 nM and 97 nM
- EC50 ([7]; Homo sapiens, OVCAR-3, growth inhibition): 94 nM
- EC50 ([7]; growth inhibition): 78 nM and 98 nM
- EC50 ([8]; Homo sapiens): 0.000444 mM
- EC50 [8]: 0.00039 mM and 0.000454 mM
- EC50 ([9]; Homo sapiens): 0.000211 mM
- EC50 [9]: 0.000232 mM and 0.000196 mM
- EC50 [10]: 49 nM
- EC50 ([11]; Homo sapiens, RPE-1, read-out: RP-6306 EC50 (mM) RPE1 CCNE1 (C2), growth inhibition, three replicates): 0.000113 mM
- EC50 ([11]; read-out: RP-6306 EC50 (mM) RPE1 CCNE1 (C2), growth inhibition, three replicates): 0.00015 mM and 0.000111 mM
- EC50 ([12]; Homo sapiens, NUGC-3, growth inhibition): 0.000212 mM
- EC50 ([12]; growth inhibition): 0.000239 mM
- EC50 ([13]; Homo sapiens, KYSE-30, growth inhibition): 0.000437 mM
- EC50 ([13]; growth inhibition): 0.000482 mM and 0.000541 mM
